The source of these data is patent US7935705B2, “N-alkylated rifampin” (Medtronic, Inc., priority 2007, dated 2011).

One may read the zone of inhibition as the extent of the growth-free halo in a diffusion test. Read a high zone of inhibition as a stronger effect on the plate. A word on the MIC: it is the smallest concentration in the dilution series that meets the test's criterion for growth inhibition.

Data set [1] deals with Staphylococcus aureus (ATCC 29213). The data set is described as follows: Disc zone of inhibition on agar plates coated with S. aureus. The class given is cell-based. Conditions: for zone of inhibition: disc containing 5 μg, agar plates coated with S. aureus ATCC 29213, 35° C. for 24 hours. The protocol:
The ability of the compound of Formula II to inhibit growth of Staphylococcus aureus (ATCC 29213) was determined in vitro. Briefly, agar plates were coated with S. aureus and discs containing 5 μg of rifampin and 5 μg of a compound of Formula II were placed on the coated plates. The plates were incubated at 35° C. for 24 hours and the zones of inhibition of the rifampin and the compound of Formula II were determined. The zone of inhibition for the rifampin loaded disc was 28 mm. The zone of inhibition for the disc with a compound of Formula II was 18 mm.

The conditions of data set [2]: after five EtO sterilization cycles; polymeric articles; cited from earlier work.
The test system of data set [3] is Staphylococcus aureus (ATCC 29213). Briefly: Minimum Inhibitory Concentration (MIC) evaluation. Conditions: ATCC29213, S. aureus, in vitro, read-out: Baseline MIC. The class given is cell-based.

In data set [1], “5,6,9,17,19,21-Hexahydroxy-23-methoxy-2,4,12,16,18,20,22-heptamethyl-8-[N-(4-methyl-1-piperazinyl)formimidoyl]-2,7-(epoxypentadeca[1,11,13]trienimino)-naphtho[2,1-b]furan-1,11(2H)-dione 21-acetate [rifampin]” yielded a zone of inhibition of 28 mm. The rifampin recoverable in data set [2] is listed as 5%.
Molecule `COC1/C=C/OC2(C)Oc3c(C)c(O)c4c(O)c(c(/C=N/N5CC[N+](C)(CC[O-])CC5)c(O)c4c3C2=O)NC(=O)/C(C)=C\C=C\C(C)C(O)C(C)C(O)C(C)C(OC(C)=O)C1C` (centres unmarked) [compound of Formula II] gave a zone of inhibition in data set [1] of 18 mm. Moreover, the “activity against Staphlococcus aureus” value in data set [1] (qualitative statement in summary) was “has activity”. For the same molecule, in data set [3], the MIC lay within 2 to 4 µg/mL.
